According to patent US12180181B1, “4-[4,5-bis(4-bromophenyl)-1-hexyl-1H-imidazol-2-yl]isoquinolin-3-ol as an antimicrobial compound” (KING FAISAL UNIVERSITY, priority 2023, dated 2024):

Assays:
Assay type in all cases: cell-based
Conditions in all cases: after 10, 20, 40 and 60 minutes at all dilutions 1:100, 1:200, 1:400, 1:800
Pseudomonas aeruginosa = test: Antimicrobial screening by agar dilution, Pseudomonas aeruginosa
Description: (§1) The antimicrobial properties of the 4-[4,5-bis(4-bromophenyl)-1-hexyl-1H-imidazol-2-yl]isoquinolin-3-ol was studied by the method of agar dilution. Test solutions of each compound was prepared in concentration of 1% using dimethylformamide as a solvent then they are diluted in physiological solution to obtain the final experimental dilutions 1:100, 1:200, 1:400, 1:800. The effect of these substances are compared with furacillin in a controlled study. The testing microbes used were gram positive bacteria Staphylococcus aureus, gram negative bacteria Pseudomonas aeruginosa and Escherichia coli and Candida albicans fungi were taken. The experiments used for this survey were meat-pentonlu agar (EPA) for cultivation of bacteria and Saburo environment for fungi. Each experiment used 1 ml of test solution on each plate 500 min. Add 2 drops of emulsified with microbes feel. All experimental samples were taken from the agar after 10, 20, 40, 60 minutes in the environment on the basis of Patrk planted. Bacteria were cultivated at a temperature of 37° C. for 1 day and the mushroom was kept in a thermostat for […] at a temperature of 28° C. in the. Then results were checked.

Staphylococcus aureus = test: Antimicrobial screening by agar dilution, Staphylococcus aureus
Description: as §1

Escherichia coli = test: Antimicrobial screening by agar dilution, Escherichia coli
Description: as §1

Candida albicans = test: Antimicrobial screening by agar dilution, Candida albicans
Description: as §1

Measured: inhibition activity (in words)

CCCCCCn1c(-c2c(O)ncc3ccccc23)nc(-c2ccc(Br)cc2)c1-c1ccc(Br)cc1 [4-[4,5-bis(4-bromophenyl)-1-hexyl-1H-imidazol-2-yl]isoquinolin-3-ol]
highest inhibition activity: Pseudomonas aeruginosa | Staphylococcus aureus | Escherichia coli | Candida albicans
